≈ marks a conversion by molar mass, not a printed value. One block for each molecule: values may come before it.
Legend:
Giardia lamblia = assay: in vitro growth inhibitory activity against Giardia lamblia; assay type: cell-based; details: Giardia duodenalis; concentration required to inhibit growth by 50%
Procedure: 35, pp. 2198-2202 (1991). EC50 values for test compounds, expressed in parts per million (ppm), were calculated from dose response curves and are presented in Table 4. As used herein, the terminology "EC50" means the concentration of test compound required to inhibit growth by 50% are compared to a control lacking the test compound. Metronidazole was included as a standard in the tests for comparative purposes.

Leishmania major = assay: in vitro growth inhibitory activity against L. major promastigotes; assay type: cell-based
Source text: 35, pp. 2198-2202 (1991).

Tetrahymena pyriformis = assay: in vitro growth inhibitory activity against the ciliate Tetrahymena pyriformis; assay type: cell-based, Tetrahymena pyriformis (ATCC strain 30005); details: 24 hours, 25° C., read-out: EC50 Tetrahymena pyriformis
Procedure: Compounds were evaluated for in vitro growth inhibitory activity against the ciliate Tetrahymena pyriformis, which was used as an indicator organism for the Apicomplexia since by several criteria the ciliates and Apicomplexa are closely related (Edlind T. D. et al., Mol. Phylogenet. Evol. vol. 5, pp. 359-367, 1996). T. pyriformis (ATCC strain 30005) was grown in 1 ml ATCC medium 357 at 25° C. in 4 ml polyallomer culture tubes without shaking. Compounds were dissolved in dimethylsufoxide (DMSO) and added to the cultures (containing 3,000 cells/ml) such that the final DMSO concentration was 0.1-0.3%. […] Parasitol. vol. 84, pp. 355-370, 1996) and Cryptosporidium parvum (Arrowood et al., FEMS Microbial. Lett., vol. 136, pp. 245-249, 1996) were tested for comparison.

Toxoplasma gondii [1] = assay: growth inhibition of T. gondii in L929 host cells ([3H]-uracil incorporation); assay type: cell-based; details: L929 host cells; for inhibition at 5 µg/mL: Toxoplasma gondii, read-out: % Inhibition
Procedure: (§1) Compounds were tested for it vitro growth inhibitory activity against Toxoplasma gondii replication in L929 (L929-ATCC CCL 1, mouse connective tissue) or HFF (human foreskin fibroblast) host cells using the [^3 H]-uracil incorporation technique as follows. Host cells were grown in 96-well flat-bottom microtiter plates at 37° C in a 5% carbon dioxide environment in modified Eagle's medium containing penicillin, streptomycin and 10% fetal equine serum. Wells containing a homogeneous confluent monolayer of host cells were infected with T. gondii tachyzoites at a ratio of 3 parasites per cell (approximately 6×10^4 tachyzoites per well containing 100 μl of medium). […] Two hours post infection, the cultures were washed to remove free parasites and the various dilutions of test compound were added. Cells were subsequently collected at 24, 48 and 72 hours. Four hours prior to each harvesting 50 Al of [^3 H]-uracil (1 μCi) was added. Cells were collected using a cell harvester and incorporated radioactivity was measured using a scintillation counter. […]

Toxoplasma gondii [2] = assay: growth inhibition of T. gondii in HFF host cells ([3H]-uracil incorporation); assay type: cell-based; details: HFF host cells; for inhibition at 5 µg/mL: 5.0 μg/ml
Procedure: as §1

[3] = cytotoxicity towards L929 host cells (Cell Titer 96); details: mouse, % Inhibition of host cell growth (values in parenthesis)
Procedure: (§2) Cytotoxicity of the test compounds towards host cells was determined using the Cell Titer 96™ it (Promega Corporation, Madison, Wis.) as follows. Cells were seeded at a concentration of 5×10^3 cells per well containing 100 μl of medium in 96-well flat-bottom microtiter plates and incubated at 37° C. in a 5% carbon dioxide environment for 4 hours. Dilutions of the test compounds prepared as described above were then added, and incubation continued for 24, 48 or 72 hours. Four hours before each of these time points the growth medium containing test compound was replaced with 100 μl of fresh medium followed by addition of 16 μl of the kit dye solution. After incubation at 37° C. for another 4 hours, 100 μl of the kit solubilization/stop solution was added to each well, the contents of the wells were mixed and the plates kept 1 hour at room temperature. The plates were then read spectrophotometrically in a plate reader at a wavelength of 570 nm. […] Atovaquone was included in the test as a standard.

[4] = cytotoxicity towards HFF host cells (Cell Titer 96); details: human, % Inhibition of host cell growth (values in parenthesis)
Procedure: as §2

Cryptosporidium parvum = assay: growth inhibitory activity against C. parvum in host MDBKF5D2 cells (immunofluorescence); assay type: cell-based
Procedure: (§3) Compounds were tested for in vitro growth inhibitory activity against C. parvum grown in host MDBKF5D2 cells and for toxicity towards the host cells as follows. […] To test for toxicity towards the host cells, the media containing test compound (200 μl) were introduced into two wells of a 96 well microtiter plate containing confluent MDBKF5D2 cell monolayers and two wells without monolayers, and incubated at 37° C. in an 8% carbon dioxide environment. After 48 hours, the tetrazolium salt MTS (Owen's solution) and phenazine methosulfate were added to each well at concentrations of 333 μg/ml and 25 μM, respectively. The plate was returned to the incubator in the dark to develop for 2 hours, then 100 μl of each supernatant was transferred to a new microtiter plate and read spectrophotometrically in a plate reader at a wavelength of 490 nm. Percent toxicity was calculated by subtracting the mean optical density (OD) of the drug supernatants from the OD of medium control supernatants (no drug), dividing by the OD of the medium control, and multiplying by 100. To test for growth inhibitory activity against C. parvum, 3×10^4 oocysts per well were incubated in mentioned concentrations of each drug at 37° C. (8% CO2) on confluent MDBKF5D2 cell monolayers in 96 well microtiter plates. After 48 hours, the level of infection in each well was determined by means of an immunofluorescence assay. Percent inhibition of growth was calculated by subtracting the mean parasite count in the wells containing test compound from the mean parasite count in the medium control wells (no test compound), dividing by the mean parasite count in the medium control wells, and multiplying by 100. Paromomycin was included in the test as a standard.

[5] = toxicity towards MDBKF5D2 host cells (MTS); details: bovine, mdbkf5d2 cells, Cytotoxicity (percent toxicity), 100 μM
Procedure: as §3

MDBKF5D2 cells = assay: toxicity towards MDBKF5D2 host cells (MTS); details: 48 hours, 2880 min
Procedure: as §3

EC50 (Giardia lamblia): 0.3 µg/mL (≈ 0.673 µM)
EC50 (Leishmania major): 0.2 µg/mL (≈ 0.448 µM)
Structure (SMILES): CCC(C)(NC(=O)c1cc(Cl)cc(Cl)c1)C(=O)C(Br)Br (centres unmarked) [Compound 4]
EC50 (Tetrahymena pyriformis): 0.1 µg/mL (≈ 0.224 µM)

EC50 (Giardia lamblia): 0.02 µg/mL (≈ 0.062 µM)
EC50 (Leishmania major): 0.06 µg/mL (≈ 0.186 µM)
Structure (SMILES): CCC(C)(NC(=O)c1cc(Cl)cc(Cl)c1)C(=O)CCl (centres unmarked) [Compound 5]
EC50 (Tetrahymena pyriformis): 0.003 µg/mL (≈ 0.0093 µM)
% Inhibition (Toxoplasma gondii [1]; 0.5 μg/ml, 24 hours): 39.2%
% Inhibition (Toxoplasma gondii [1]; 0.5 μg/ml, 48 hours): 64.7%
% Inhibition (Toxoplasma gondii [1]; 0.5 μg/ml, 72 hours): 44.1%
% Inhibition (Toxoplasma gondii [1]; 5.0 μg/ml, 24 hours): 3.3%
inhibition at 5 µg/mL (Toxoplasma gondii [1]; L929, 48 h, 5.0 μg/ml, 48 hours): 69.2%
inhibition at 5 µg/mL (Toxoplasma gondii [1]; L929, 72 h, 5.0 μg/ml, 72 hours): 84%
% Inhibition (Toxoplasma gondii [2]; 0.5 μg/ml, 48 hours): 97.6%
% Inhibition (Toxoplasma gondii [2]; 0.5 μg/ml, 72 hours): 80.2%
inhibition at 0.5 µg/mL (Toxoplasma gondii [2]; Toxoplasma gondii, 24 h, 0.5 μg/ml, 24 hours, read-out: % Inhibition): 55.9%
inhibition at 5 µg/mL (Toxoplasma gondii [2]; Toxoplasma gondii, 24 h, 24 hours, read-out: % Inhibition): 89%
inhibition at 5 µg/mL (Toxoplasma gondii [2]; Toxoplasma gondii, 48 h, 48 hours, read-out: % Inhibition): 100%
inhibition at 5 µg/mL (Toxoplasma gondii [2]; Toxoplasma gondii, 72 h, 72 hours, read-out: % Inhibition): 99.6%
inhibition at 48 h ([3]; L929, 0.5 μg/ml): 0%
inhibition at 72 h ([3]; L929, 0.5 μg/ml): 0%
inhibition at 48 h ([3]; L929, 5.0 μg/ml): 66.8%
inhibition at 72 h ([3]; L929, 5.0 μg/ml): 91.2%
inhibition at 48 h ([4]; 0.5 μg/ml, 48 hours): 5.3%
inhibition at 24 h ([4]; 5.0 μg/ml, 24 hours): 8%
inhibition at 72 h ([4]; 5.0 μg/ml, 72 hours): 39.6%
% Inhibition (Cryptosporidium parvum; 10 μM, 48 hours): 34.1%
inhibition at 0.1 µM (Cryptosporidium parvum; Cryptosporidium parvum, 48 h, 0.1 μM): 10%
inhibition at 1 µM (Cryptosporidium parvum; Cryptosporidium parvum, 48 h, 1.0 μM): 17.4%
cytotoxicity at 48 h, 100 µM [5]: 72.6%
Cytotoxicity (percent toxicity) (MDBKF5D2 cells; 0.1 μM): 18.8%
Cytotoxicity (percent toxicity) (MDBKF5D2 cells; 1.0 μM): 6.7%
Cytotoxicity (percent toxicity) (MDBKF5D2 cells; 10 μM): 31.4%

EC50 (Giardia lamblia): 0.009 µg/mL (≈ 0.025 µM)
EC50 (Leishmania major): 0.6 µg/mL (≈ 1.67 µM)
Structure (SMILES): CCC(C)(NC(=O)c1cc(Cl)c(N)c(C=NOC)c1)C(=O)CCl (centres unmarked) [Compound 6, 4-amino-3-chloro-5-methoxyiminomethyl-N-(3-chloro-1-ethyl-1-methyl-2-oxopropyl)benzamide]
EC50 (Tetrahymena pyriformis): 0.02 µg/mL (≈ 0.0555 µM)

EC50 (Giardia lamblia): 0.05 µg/mL (≈ 0.145 µM)
EC50 (Leishmania major): 0.6 µg/mL (≈ 1.74 µM)
Structure (SMILES): CCC(C)(NC(=O)c1cc(Cl)cc(Cl)c1)C(=O)CSC#N (centres unmarked) [Compound 7]
EC50 (Tetrahymena pyriformis): 0.07 µg/mL (≈ 0.203 µM)
